Reference: patent US20240208954A1, “OXADIAZOLE COMPOUND, PREPARATION METHOD THEREFOR, PHARMACEUTICAL COMPOSITION AND USE THEREOF” (SHANGHAI INSTITUTE OF MATERIA MEDICA, CHINESE ACADEMY OF …, priority 2020, published 2024)
Where “and” joins values, the source holds several entries; their conditions need not be identical. Equal values may be shown once. Read-outs that look alike come from different tables or passages of the source.

Key:
[1] = biological target: T1, S1PR1 (Homo sapiens, UniProt P21453); assay: Agonistic activity test on S1P receptors, FLIPR, CHO-K1/Ga15/EDG1 cells; type: cell-based; conditions: CHO-K1/Ga15/EDG1 cells, FLIPR agonist mode; read-out: S1PR1 EC50
T1 construct: host or cells: CHO-K1 co-expressing Ga15
T1 sequence (P21453 whole entry): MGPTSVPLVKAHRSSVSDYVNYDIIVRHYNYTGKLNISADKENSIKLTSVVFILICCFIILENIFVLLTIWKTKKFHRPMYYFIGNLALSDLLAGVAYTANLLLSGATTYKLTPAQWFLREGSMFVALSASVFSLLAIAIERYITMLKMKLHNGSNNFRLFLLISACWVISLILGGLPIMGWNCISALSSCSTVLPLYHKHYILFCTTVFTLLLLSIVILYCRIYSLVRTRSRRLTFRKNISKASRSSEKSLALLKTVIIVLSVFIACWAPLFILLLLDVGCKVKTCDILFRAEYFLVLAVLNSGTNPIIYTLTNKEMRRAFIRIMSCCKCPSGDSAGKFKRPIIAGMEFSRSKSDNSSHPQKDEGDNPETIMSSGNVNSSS
Method: Instrument: FLIPR™ TETRA (Molecular Device)
Experimental materials: CHO-K1/Ga15/EDG1 cells constructed by GenScript autonomously.
Sample processing: Before the experiment, the working solution with the corresponding concentration was prepared by diluting with GPCR dilution buffer.
After 18-20 hours, the cell culture plat was taken out and added with dye working solution, and then the plate was placed in a 37° C./5% CO2 incubator for 1 hour, and finally equilibrated at room temperature for 15 minutes. Positive agonist working solution was added, and RFU values were detected and recorded. […] The positive agonist working fluid was added to the cell culture plate at the 21st second. […] The antagonistic mode detection program, the overall detection time of the instrument was 120 seconds, and positive antagonist working solution was added to the cell culture plate at the 21st second.
Data processing: Raw data were obtained via ScreenWorks (version 3.1) and saved as *FMD files on the Kingsray computer network system. Data were collected and analyzed using Excel and GraphPad Prism 6 software programs. For each well, the average fluorescence intensity value from 1 to 20 seconds was used as the baseline, and the maximum fluorescence intensity value from 21 to 120 seconds minus the minimum fluorescence intensity value from 21 to 120 seconds was the relative fluorescence intensity value (ARFU), from which the percentage activation or inhibition can be calculated based on the following equation.
% Activation Rate=(ΔRFUCompound-ΔRFUBackground)/(ΔRFUAgonist control-ΔRFUBackground)×100%
The data was analyzed using GraphPad Prism 6 with a four-parameter equation to calculate the EC50 and IC50 values. The four-parameter equation was as follows: y=Bottom+(Top-Bottom)/(1+10^((LogEC50/IC50-X)*HillSlope)), wherein X is the Log value of the concentration and Y was the inhibition rate.

[2] = Preliminary evaluation of pharmacokinetics in Beagle dogs; type: in vivo; conditions: for MRT inf: read-out: MRT0-∞; for Vd: read-out: Vss; for concentration at 0.083 h / concentration at 0.25 h / concentration at 0.5 h / concentration at 1 h / concentration at 2 h / concentration at 3 h / concentration at 4 h / concentration at 6 h / concentration at 8 h: read-out: Plasma drug concentration in Beagle dogs
[3] = system: S1P receptor; assay: Subtype selectivity study of compound A1, overall statement; type: cell-based; conditions: especially for S1P1 and S1P5 subtypes
Method: The S1P receptor selectivity was tested for different subtypes using the method described in Experimental Example 1.

[4] = Beagle dogs, intragastric 3 mg/kg, individual animals 4-6, listed as DC411151
[5] = Beagle dogs, intravenous 0.5 mg/kg, individual animals 1-3, listed as DC411151, 0.5 mg/kg
[6] = Beagle, dog, plasma, po, 3 mg/kg, Beagle dogs, intragastric 3 mg/kg, individual animals 4-6
[7] = Beagle, dog, plasma, po, 3 mg/kg, Beagle dogs, intragastric 3 mg/kg, mean
[8] = beagle, dog, plasma, iv, 0.5 mg/kg, Beagle dogs, intravenous 0.5 mg/kg, individual animals 1-3
[9] = beagle, dog, plasma, iv, 0.5 mg/kg, Beagle dogs, intravenous 0.5 mg/kg, mean
[10] = dog, in vivo, Beagle dogs, intravenous 0.5 mg/kg, mean

## CC(C)Oc1ccc(-c2nc(-c3ccc(CN4CC(C(=O)O)C4)c4ccccc34)no2)cc1C#N.Cl [Compound A1, 1-((4-(5-(3-cyano-4-isopropoxyphenyl)-1,2,4-oxadiazol-3-yl)naphthalen-1-yl)methyl) azetidine-3-carboxylic acid hydrochloric acid]
[1]
  EC50: 48 nM
[2]; [4]
  AUC0-t: 1170 ng·h/mL and 1550 ng·h/mL and 757 ng·h/mL
  AUC0-∞: 1200 ng·h/mL and 1570 ng·h/mL and 765 ng·h/mL
  Cmax: 318 ng/mL and 539 ng/mL and 242 ng/mL
  MRT0-∞: 2.58 h and 2.44 h
  Tmax: 1 h and 0.25 h and 2 h
  t1/2: 1.32 h and 1.06 h
[2]; Beagle dogs, intravenous 0.5 mg/kg
  plasma clearance as share of dog liver blood flow (about 31 mL/min/kg): 75.2%
[2]; [5]
  AUC0-t: 317 ng·h/mL and 382 ng·h/mL
  AUC0-∞: 319 ng·h/mL and 382 ng·h/mL
  CL: 26.1 mL/min/kg and 21.8 mL/min/kg
  MRT0-∞: 0.892 h and 0.952 h
  Vss: 1.40 L/kg and 1.24 L/kg
  t1/2: 1.05 h and 0.905 h
[2]; [6]
  half-life: 1.3 h
  MRT inf: 2.93 h
[2]; [7]
  AUC(0-inf): 1180 ng·h/mL
  half-life: 1.23 h
  MRT inf: 2.65 h
[2]; Beagle, dog, plasma, po, 3 mg/kg, Beagle dogs, intragastric 3 mg/kg, mean, read-out: Tmax
  Tmax: 1.08 h
[2]; [8]
  AUC(0-inf): 379 ng·h/mL
  clearance: 22 mL/min/kg
  half-life: 0.997 h
  MRT inf: 0.91 h
  Vd: 1.2 L/kg
[2]; beagle, dog, plasma, iv, 0.5 mg/kg, Beagle dogs, intravenous 0.5 mg/kg, individual animals 1-3, read-out: AUC0-t
  AUC0-t: 375 ng·h/mL
[2]; [9]
  AUC(0-inf): 360 ng·h/mL
  MRT inf: 0.918 h
[2]; beagle, dog, plasma, iv, 0.5 mg/kg, Beagle dogs, intravenous 0.5 mg/kg, mean, read-out: AUC0-t
  AUC0-t: 358 ng·h/mL
[2]; beagle, dog, plasma, iv, 0.5 mg/kg, intravenous 0.5 mg/kg, 0.083 h, individual animals 1-3
  concentration at 0.083 h: 604 ng/mL
[2]; beagle, dog, plasma, iv, 0.5 mg/kg, intravenous 0.5 mg/kg, 0.083 h, mean
  concentration at 0.083 h: 565 ng/mL
[2]; beagle, dog, plasma, iv, 0.5 mg/kg, intravenous 0.5 mg/kg, 0.25 h, individual animals 1-3
  concentration at 0.25 h: 237 ng/mL
[2]; beagle, dog, plasma, iv, 0.5 mg/kg, intravenous 0.5 mg/kg, 0.25 h, mean
  concentration at 0.25 h: 265 ng/mL
[2]; beagle, dog, plasma, iv, 0.5 mg/kg, intravenous 0.5 mg/kg, 0.5 h, individual animals 1-3
  concentration at 0.5 h: 190 ng/mL
[2]; beagle, dog, plasma, iv, 0.5 mg/kg, intravenous 0.5 mg/kg, 0.5 h, mean
  concentration at 0.5 h: 168 ng/mL
[2]; beagle, dog, plasma, iv, 0.5 mg/kg, intravenous 0.5 mg/kg, 1 h, individual animals 1-3
  concentration at 1 h: 98.8 ng/mL
[2]; beagle, dog, plasma, iv, 0.5 mg/kg, intravenous 0.5 mg/kg, 1 h, mean
  concentration at 1 h: 90.9 ng/mL
[2]; beagle, dog, plasma, iv, 0.5 mg/kg, intravenous 0.5 mg/kg, 2 h, individual animals 1-3
  concentration at 2 h: 27.5 ng/mL
[2]; beagle, dog, plasma, iv, 0.5 mg/kg, intravenous 0.5 mg/kg, 2 h, mean
  concentration at 2 h: 30.2 ng/mL
[2]; beagle, dog, plasma, iv, 0.5 mg/kg, intravenous 0.5 mg/kg, 3 h, individual animals 1-3
  concentration at 3 h: 20.4 ng/mL
[2]; beagle, dog, plasma, iv, 0.5 mg/kg, intravenous 0.5 mg/kg, 3 h, mean
  concentration at 3 h: 17.7 ng/mL
[2]; beagle, dog, plasma, iv, 0.5 mg/kg, intravenous 0.5 mg/kg, 4 h, individual animals 1-3
  concentration at 4 h: 9.68 ng/mL
[2]; beagle, dog, plasma, iv, 0.5 mg/kg, intravenous 0.5 mg/kg, 4 h, mean
  concentration at 4 h: 9.39 ng/mL
[2]; beagle, dog, plasma, iv, 0.5 mg/kg, intravenous 0.5 mg/kg, 6 h, individual animals 1-3
  concentration at 6 h: 2.51 ng/mL
[2]; beagle, dog, plasma, iv, 0.5 mg/kg, intravenous 0.5 mg/kg, 6 h, mean
  concentration at 6 h: 2.21 ng/mL
[2]; beagle, dog, plasma, iv, 0.5 mg/kg, intravenous 0.5 mg/kg, 8 h, mean
  concentration at 8 h: 0.773 ng/mL
[2]; beagle, dog, plasma, oral, 3 mg/kg, intragastric 3 mg/kg, 0.25 h, mean
  concentration at 0.25 h: 215 ng/mL
[2]; beagle, dog, plasma, oral, 3 mg/kg, intragastric 3 mg/kg, 0.5 h, mean
  concentration at 0.5 h: 262 ng/mL
[2]; beagle, dog, plasma, oral, 3 mg/kg, intragastric 3 mg/kg, 1 h, individual animals 4-6
  concentration at 1 h: 333 ng/mL
[2]; beagle, dog, plasma, oral, 3 mg/kg, intragastric 3 mg/kg, 1 h, mean
  concentration at 1 h: 281 ng/mL
[2]; beagle, dog, plasma, oral, 3 mg/kg, intragastric 3 mg/kg, 2 h, individual animals 4-6
  concentration at 2 h: 365 ng/mL
[2]; beagle, dog, plasma, oral, 3 mg/kg, intragastric 3 mg/kg, 2 h, mean
  concentration at 2 h: 291 ng/mL
[2]; beagle, dog, plasma, oral, 3 mg/kg, intragastric 3 mg/kg, 3 h, individual animals 4-6
  concentration at 3 h: 212 ng/mL
[2]; beagle, dog, plasma, oral, 3 mg/kg, intragastric 3 mg/kg, 3 h, mean
  concentration at 3 h: 208 ng/mL
[2]; beagle, dog, plasma, oral, 3 mg/kg, intragastric 3 mg/kg, 4 h, mean
  concentration at 4 h: 111 ng/mL
[2]; beagle, dog, plasma, oral, 3 mg/kg, intragastric 3 mg/kg, 6 h, mean
  concentration at 6 h: 59.4 ng/mL
[2]; beagle, dog, plasma, oral, 3 mg/kg, intragastric 3 mg/kg, 8 h, mean
  concentration at 8 h: 10.8 ng/mL
[2]; beagle, dog, plasma, po, 3 mg/kg, Beagle dogs, 3 mg/kg by gavage, range over animals, read-out: peak time Tmax
  Tmax: 0.25 to 2 h
[2]; dog, in vivo, po, Beagle dogs, intragastric 3 mg/kg, mean, read-out: AUC0-t
  AUC0-t: 1160 ng·h/mL
[2]; dog, in vivo, po, Beagle dogs, intragastric 3 mg/kg, mean, read-out: Cmax
  Cmax: 366 ng/mL
[2]; [10]
  clearance: 23.3 mL/min/kg
  half-life: 0.984 h
  Vd: 1.28 L/kg
[2]; dog, plasma, oral, Beagle dogs, 3 mg/kg by gavage vs 0.5 mg/kg intravenous, read-out: absolute bioavailability
  bioavailability: 54%
[2]; intragastric 3 mg/kg, 0.25 h, individual animals 4-6, listed as DC411151
  Plasma drug concentration in Beagle dogs: 539 ng/mL and 93.3 ng/mL and 11.2 ng/mL
[2]; intragastric 3 mg/kg, 0.5 h, individual animals 4-6, listed as DC411151
  Plasma drug concentration in Beagle dogs: 444 ng/mL and 153 ng/mL and 188 ng/mL
[2]; intragastric 3 mg/kg, 1 h, individual animals 4-6, listed as DC411151
  Plasma drug concentration in Beagle dogs: 193 ng/mL and 318 ng/mL
[2]; intragastric 3 mg/kg, 2 h, individual animals 4-6, listed as DC411151
  Plasma drug concentration in Beagle dogs: 242 ng/mL and 266 ng/mL
[2]; intragastric 3 mg/kg, 3 h, individual animals 4-6, listed as DC411151
  Plasma drug concentration in Beagle dogs: 143 ng/mL and 269 ng/mL
[2]; intragastric 3 mg/kg, 4 h, individual animals 4-6, listed as DC411151
  Plasma drug concentration in Beagle dogs: 151 ng/mL and 62.7 ng/mL and 118 ng/mL
[2]; intragastric 3 mg/kg, 6 h, individual animals 4-6, listed as DC411151
  Plasma drug concentration in Beagle dogs: 90.3 ng/mL and 24.0 ng/mL and 64.0 ng/mL
[2]; intragastric 3 mg/kg, 8 h, individual animals 4-6, listed as DC411151
  Plasma drug concentration in Beagle dogs: 12.0 ng/mL and 4.87 ng/mL and 15.6 ng/mL
[2]; intragastric 3 mg/kg, 24 h, individual animals 4-6
  Plasma drug concentration in Beagle dogs: BQL
[2]; intravenous 0.5 mg/kg, 0.083 h, individual animals 1-3, listed as DC411151, 0.5 mg/kg
  Plasma drug concentration in Beagle dogs: 554 ng/mL and 537 ng/mL
[2]; intravenous 0.5 mg/kg, 0.25 h, individual animals 1-3, listed as DC411151, 0.5 mg/kg
  Plasma drug concentration in Beagle dogs: 219 ng/mL and 340 ng/mL
[2]; intravenous 0.5 mg/kg, 0.5 h, individual animals 1-3, listed as DC411151, 0.5 mg/kg
  Plasma drug concentration in Beagle dogs: 138 ng/mL and 176 ng/mL
[2]; intravenous 0.5 mg/kg, 1 h, individual animals 1-3, listed as DC411151, 0.5 mg/kg
  Plasma drug concentration in Beagle dogs: 76.9 ng/mL and 97.1 ng/mL
[2]; intravenous 0.5 mg/kg, 2 h, individual animals 1-3, listed as DC411151, 0.5 mg/kg
  Plasma drug concentration in Beagle dogs: 27.8 ng/mL and 35.4 ng/mL
[2]; intravenous 0.5 mg/kg, 3 h, individual animals 1-3, listed as DC411151, 0.5 mg/kg
  Plasma drug concentration in Beagle dogs: 12.5 ng/mL and 20.3 ng/mL
[2]; intravenous 0.5 mg/kg, 4 h, individual animals 1-3, listed as DC411151, 0.5 mg/kg
  Plasma drug concentration in Beagle dogs: 7.88 ng/mL and 10.6 ng/mL
[2]; intravenous 0.5 mg/kg, 6 h, individual animals 1-3, listed as DC411151, 0.5 mg/kg
  Plasma drug concentration in Beagle dogs: 1.64 ng/mL and 2.47 ng/mL
[2]; intravenous 0.5 mg/kg, 8 h, individual animals 1-3, listed as DC411151, 0.5 mg/kg
  Plasma drug concentration in Beagle dogs: BQL and 1.05 ng/ml and 0.496 ng/ml
[3]
  selectivity for different S1P receptor subtypes: good selectivity
